Assay results: patent US6605627B2, “Modulators of peroxisome proliferator activated receptor-gamma, and methods for the use thereof” (The Salk Insitute for Biological Studies, priority 1999, dated 2003)

Biological target: T1, GAL4-PPARγ fusion protein (Mus musculus, UniProt P37238)
T1 construct: expressed in transfected cells; host or cells: CV-1 cells
T1 sequence (P37238 163-475 isoform P37238-2): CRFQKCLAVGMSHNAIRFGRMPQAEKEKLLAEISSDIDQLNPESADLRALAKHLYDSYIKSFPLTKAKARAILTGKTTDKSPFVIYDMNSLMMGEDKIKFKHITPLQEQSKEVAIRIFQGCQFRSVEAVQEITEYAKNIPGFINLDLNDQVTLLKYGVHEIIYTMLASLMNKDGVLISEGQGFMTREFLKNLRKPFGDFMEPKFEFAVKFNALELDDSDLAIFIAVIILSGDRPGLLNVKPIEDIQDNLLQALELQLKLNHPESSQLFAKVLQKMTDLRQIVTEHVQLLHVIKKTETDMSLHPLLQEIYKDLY
Experiment: Screening assay for PPAR-γ antagonists (GAL4-PPARγ luciferase reporter in CV-1 cells)
Assay type: cell-based
Settings: CV-1 cells co-transfected with CMX-GAL-PPARγ and pTK-MH100x4-LUC; test compound alone or with agonist 200 nM BRL 49653; FIG. 1
Method: Effector plasmid, reporter plasmid, and β-galactosidase control plasmid are co-transfected into CV-1 cells at a ratio of about 1:3:5, using a liposome-mediated method, employing N-{2-(2,3)-dioleoyloxy)propyl-N,N,N-trimethyl ammonium methyl sulfate} (i.e., DOTAP, Boehlinger Mannheim) according to the manufacturer's instructions in Dulbecco's modified Eagle's medium (DMEM) with 10% delipidated hormone-depleted fetal calf serum. After about 2-3 hours, the cells are washed with DMEM and agonist (200 nM BRL 49653) and/or an appropriate test compound (LY 171883; see FIG. 1) is added to the media. After 24-48 hours of incubation, the cells are rinsed with phosphate buffered saline (pH 7.2) and lysed. Aliquots are assayed for luciferase and β-galactosidase activity. Luciferase activity is normalized to optical density units of β-galactosidase per minute of incubation.
Thus, CV-1 cells are co-transfected with CMX-GAL-PPARγ and pTK-MH100x4-LUC at a ratio of about 100 ng of receptor-encoding DNA per 10^5 cells. The usual amounts of DNA per 10^5 cells are 100 ng of CMX-GAL-PPARγ, 300 ng of pTK-MH100x4-LUC, and 500 ng of CMX-βGAL. Typically, transfections are performed in triplicate. The plates are then incubated for 2-3 hours at 37° C.
The cells are washed with fresh medium. […]
The data are expressed as relative light units (RLUs) per O.D. unit of β-galactosidase per minute. […]

CCCc1c(OCCCCc2nnn[nH]2)ccc(C(C)=O)c1O [LY 171883]
relative reporter activity (functional activity at PPARγ): functional antagonist of PPARγ
